Where “and” joins values, the source holds several entries; their conditions need not be identical. Equal entries are not always repeated. Entries after “also recorded” stand apart in the source; their conditions may differ.
Tests used:
[1] = target: T1, human cardiac Na^+ channel (SCN5A) (Homo sapiens, UniProt Q14524); assay: Whole-cell patch clamp Na+ current in HEK cells stably expressing SCN5A; type: cell-based; settings: for effect on peak Na+ current (in words): versus SCN5A cells
T1 construct: expressed in transfected cells
T1 sequence (Q14524 whole entry): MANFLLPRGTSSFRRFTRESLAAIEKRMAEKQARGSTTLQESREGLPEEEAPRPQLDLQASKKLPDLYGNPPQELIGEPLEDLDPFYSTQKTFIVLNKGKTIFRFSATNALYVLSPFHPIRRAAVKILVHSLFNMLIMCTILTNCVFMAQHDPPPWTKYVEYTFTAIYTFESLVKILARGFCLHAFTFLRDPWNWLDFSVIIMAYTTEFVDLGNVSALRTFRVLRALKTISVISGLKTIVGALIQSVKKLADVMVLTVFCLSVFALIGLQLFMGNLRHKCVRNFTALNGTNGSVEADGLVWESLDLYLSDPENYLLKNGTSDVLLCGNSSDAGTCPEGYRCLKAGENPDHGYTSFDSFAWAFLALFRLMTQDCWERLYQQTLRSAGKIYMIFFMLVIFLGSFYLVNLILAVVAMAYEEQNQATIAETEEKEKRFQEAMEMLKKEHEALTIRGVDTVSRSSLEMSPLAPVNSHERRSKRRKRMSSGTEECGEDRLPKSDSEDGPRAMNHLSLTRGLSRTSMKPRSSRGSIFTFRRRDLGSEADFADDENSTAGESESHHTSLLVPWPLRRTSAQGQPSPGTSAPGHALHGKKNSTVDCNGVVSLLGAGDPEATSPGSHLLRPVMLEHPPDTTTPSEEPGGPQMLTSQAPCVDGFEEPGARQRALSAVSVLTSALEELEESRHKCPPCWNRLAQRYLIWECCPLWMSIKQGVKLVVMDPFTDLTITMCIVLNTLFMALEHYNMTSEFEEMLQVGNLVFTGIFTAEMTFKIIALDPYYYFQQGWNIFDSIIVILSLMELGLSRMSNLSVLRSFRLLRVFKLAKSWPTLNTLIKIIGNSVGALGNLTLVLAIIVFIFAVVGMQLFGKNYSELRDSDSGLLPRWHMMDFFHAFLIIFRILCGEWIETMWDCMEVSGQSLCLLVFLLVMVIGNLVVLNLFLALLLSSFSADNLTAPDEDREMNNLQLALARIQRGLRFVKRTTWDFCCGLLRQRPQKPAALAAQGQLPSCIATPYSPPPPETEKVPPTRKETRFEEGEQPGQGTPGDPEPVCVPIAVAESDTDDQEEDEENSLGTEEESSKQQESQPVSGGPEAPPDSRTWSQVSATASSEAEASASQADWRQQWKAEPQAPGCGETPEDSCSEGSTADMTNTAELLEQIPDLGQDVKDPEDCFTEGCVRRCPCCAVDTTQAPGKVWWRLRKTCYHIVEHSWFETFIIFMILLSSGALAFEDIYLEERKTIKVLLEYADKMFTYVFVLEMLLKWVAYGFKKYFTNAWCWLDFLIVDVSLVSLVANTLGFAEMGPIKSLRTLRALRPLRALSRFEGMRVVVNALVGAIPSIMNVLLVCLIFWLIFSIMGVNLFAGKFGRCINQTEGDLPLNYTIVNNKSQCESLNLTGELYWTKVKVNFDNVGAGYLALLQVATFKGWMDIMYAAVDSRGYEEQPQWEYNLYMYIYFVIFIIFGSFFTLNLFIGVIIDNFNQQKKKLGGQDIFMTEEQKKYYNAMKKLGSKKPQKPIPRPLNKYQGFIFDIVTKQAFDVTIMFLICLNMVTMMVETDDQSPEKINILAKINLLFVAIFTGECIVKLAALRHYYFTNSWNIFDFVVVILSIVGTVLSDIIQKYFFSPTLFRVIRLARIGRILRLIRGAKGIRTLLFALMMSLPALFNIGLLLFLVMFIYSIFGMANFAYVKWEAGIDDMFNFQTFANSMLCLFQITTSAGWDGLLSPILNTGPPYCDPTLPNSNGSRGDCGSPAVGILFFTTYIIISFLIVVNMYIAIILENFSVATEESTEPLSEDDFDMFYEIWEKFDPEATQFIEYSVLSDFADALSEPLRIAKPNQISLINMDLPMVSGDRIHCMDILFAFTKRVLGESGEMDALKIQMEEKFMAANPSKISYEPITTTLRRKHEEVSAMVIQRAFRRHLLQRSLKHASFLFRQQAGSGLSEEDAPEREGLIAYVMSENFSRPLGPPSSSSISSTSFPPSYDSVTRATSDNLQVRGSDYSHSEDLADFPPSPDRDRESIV
Protocol: HEK cells stably transfected with two different Na^+ channel constructs were used, SCN5A-IRES-GFP and SCN5A-GFP fusion constructs. Cloning and establishment of the cell lines has been delineated previously (11). The HEK 293 cell line stably expressing a SCN5A-IRES-GFP construct was maintained by antibiotic selection using Geneticin (G-8168, Sigma-Aldrich) at a concentration of 0.2 mg/mL was used for patch clamp study. GFP was used as a marker to identify cells expressing the cardiac Na^+ channel. The cells were cultured in 6 well plates with Dulbecco's Modified Eagle's medium (DMEM), 10% fetal bovine serum and 1% pen-strep. Cells were stored in a 5% CO2 incubator at 37° C. for 1-2 days. GPD1-L (the A280V mutant or wild-type) was transiently co-transfected into HEK 293 cells. GPD1-L vectors have been described in London et al.
The effects of external NADH or NAD^+ on sodium current were determined by incubating HEK 293 cells overnight (12-14 h) with NADH/NAD^+ (300 μM) added to the media. The effects of internal NADH or NAD^+ (100 μM) on sodium current were tested by adding the compounds to the pipette solution.
Cells expressing GFP were tested with the whole cell patch-clamp technique in voltage-clamp mode to measure Na^+ current levels. For patch-clamping, HEK cells were plated onto plastic coverslips 2-3 h before the recordings. Glass pipettes were pulled on a Sutter Model P-97 horizontal puller to a resistance of 1-2 MΩ. The glass pipettes were filled with a pipette solution containing (in mmol/L): CsCl 80, Cesium Aspartate 80, EGTA 11, MgCl2 1, CaCl2 1, HEPES 10, Na2ATP 5 and pH 7.4 with CsOH. The bath solution consisted of (in mmol/L): NaCl 130, CsCl 5, CaCl2 2, MgCl2 1.2, HEPES 10 and Glucose 5 (titrated to pH 7.4 with CsOH). Once a seal was established, a small amount of suction was applied to obtain the whole cell configuration. A stepped voltage protocol from −100 to +60 mV from a holding potential of −100 mV was applied to establish the presence of voltage-gated Na^+ channels. Currents obtained during steps to −10 mV were used for comparison in determining the relative reduction in sodium current. Cells were tested at 25° C. In all recordings, 80% of the series resistance was compensated, yielding a maximum voltage error of ˜1 mV. Data were sampled at 10 kHz and later filtered at 5 kHz for analysis. Currents were recorded and analyzed with an Axopatch 200B amplifier, Axon Digidata 1230A A/D converter and pClamp software (Molecular Devices Corporation, Sunnyvale, Calif.).
Using HEK 293 cells stably expressing the SCN5A-IRES-GFP construct, we measured the effect of treatments on the Na^+ current. Cells were cultured in 6-well plates in a […] incubator at 37° C. WT or MT GPD1-L was transiently transfected into HEK 293 cells as described previously in London et al. Other treatments included extracellular NADH or NAD^+ (300 μM) for […] or NADH or NAD^+ (100 μM) in the patch pipette solution. Apocynin (100 μM, Sigma) was added to cells 4-6 h prior to treatment with NADH and continuing for the entire extracellular NADH incubation. Na^+ current levels were measured from GFP-expressing cells using the whole-cell patch clamp technique in voltage-clamp mode at room temperature. HEK cells were dissociated by trypsin-EDTA, and replated onto plastic coverslips 2-3 h before the recordings. Glass pipettes were pulled on a Sutter Model P-97 horizontal puller to a resistance of 1-2 MΩ. The glass pipettes were filled with a pipette solution containing (in mM): CsCl 80, cesium aspartate 80, EGTA 11, MgCl2 1, CaCl2 1, HEPES 10, and Na2ATP 5 (adjusted to pH 7.4 with CsOH). The bath solution consisted of (in mM): NaCl 130, CsCl 5, CaCl2 2, MgCl2 1.2, HEPES 10 and Glucose 5 (adjusted to pH 7.4 with CsOH). Once a seal was established, a small amount of suction was applied to obtain the whole-cell configuration. […]

HEK 293 cell (SCN5A) = type: cell-based; settings: human, 24 h
Protocol: Human embryonic kidney (HEK) cell line was used for all experiments. A HEK cell line stably expressing a SCN5A-IRES-GFP construct as described in our previous study (Arnold et al., Hearth Rhythm 4:46-53 (2007)) was maintained by antibiotic selection using 0.2 mg/mL Geneticin (G-8168, Sigma-Aldrich). Cells were cultured in Dulbecco's modified Eagle's medium (DMEM; ATCC, Manassas, Va.) with 10% fetal calf serum (ATCC) at 37° C. in 60 mm×15 mm cell culture dishes (Corning Incorporated, Corning, N.Y.) until 70-80% confluence. After reaching confluence, cells were exposed to NADH (Sigma, St. Louis, Mo.) or NAD^+ (Sigma) in culture medium for a total of 12-14 h in triplicate. Experiments were repeated three times. After dissociation with 0.125% trypsin-EDTA, 40 μL of 0.4% Trypan-blue (Sigma, St. Louis, Mo.) was added to each well, and a Trypan-blue exclusion viability assay was performed.
As previously described, we maintained a human embryonic kidney (HEK) cell line that stably expresses the human cardiac Na^+ channel (SCN5A) with antibiotic selection using 0.2 mg/mL geneticin (G-8168, Sigma-Aldrich, St. Louis, Mo.) (23). Expression of SCN5A was linked to green fluorescent protein (GFP) expression by an internal ribosomal entry site (SCN5A-IRES-GFP). Cells were cultured in Dulbecco's modified Eagle's medium (DMEM; ATCC, Manassas, Va.) with 10% fetal calf serum (ATCC) at 37° C. in 60 mm×15 mm cell culture dishes (Corning Incorporated, Corning, N.Y.) until 70-80% confluency. Then, cells were exposed to NADH or NAD^+ (both from Sigma-Aldrich) in culture medium for a total of 24 h. After dissociation with 0.125% trypsin-ethylenediaminetetraacetic acid (EDTA), 40 μL of 0.4% Trypan-blue (Sigma) was added to each well of a 6-well plate, and a Trypan-blue exclusion viability assay was performed. SCN5A cells were tolerant of a wide range of NADH or NAD^+ concentrations from 150 to 300 μM (data not shown). […] All NAD(H) containing solutions were made fresh daily.

[2] = test system: human SCN5A fused at the C-terminus to GFP (SCN5A-GFP fusion); assay: Na+ channel tracking (confocal microscopy of SCN5A-GFP fusion in HEK cells); type: cell-based
Protocol: An SCN5A constructed fused at the C-Terminus to GFP (SCN5A-GFP fusion) was stably transfected in HEK cells and grown on glass bottom 14 mm microwell dishes (MatTek Corporation, Ashland, Mass., USA). A Nikon (Melville, N.Y.) Diaphot 200 inverted microscope with a fluorescent lamp was used to identify cells expressing GFP. Cells expressing GFP were transiently co-transfected with MT GPD1-L or incubated overnight with NADH. Fixation was performed by washing the coverslip three times with DPBS (Dulbecco's Phosphate Buffered Saline 1× of GIBCO) and exposing them to 4% paraformaldehyde in PBS at pH 7.4. […] GFP fluorescence was observed using a 507 nm narrow bandpass filter and a 60× oil 1.4 NA objective. Quantification was done using ImageJ software.
For these experiments, a construct of human SCN5A fused at the C-terminus to GFP (SCN5A-GFP fusion) was stably transfected in HEK cells and grown on the glass bottom of 14-mm microwell dishes (MatTek Corporation, Ashland, Mass., USA). […] For imaging Na^+ channels, GFP was excited at 488 nm with an argon ion 30 mW water-cooled laser, and GFP fluorescence was observed using a 507 nm narrow bandpass filter and a 60× oil 1.4 NA objective. Quantification was done using ImageJ software.

SCN5A^+/− mouse heart = assay: Ventricular arrhythmogenesis in Langendorff-perfused SCN5A+/- mouse heart (MAP recording, PES)
Protocol: Hearts from mice genetically modified to ablate one allele of SCN5A were isolated and Langendorff-perfused (3 ml/min at 37° C.) with Krebs-Henseleit solution (in mM: 119 NaCl, 25 NaHCO3, 4 KCl, 1.2 KH2PO4, 1 MgCl2, 1.8 CaCl2, 10 glucose and 2 sodium pyruvate) and allowed to beat intrinsically for 10 min. Monophasic action potentials (MAPs) were recorded using a MAP electrode (Harvard Apparatus, UK) placed on left ventricular epicardial surface. MAP signals were amplified, band-pass filtered (0.5 Hz to 1 kHz: Neurolog NL900D), digitized (1401, Cambridge Electronic Design, Cambridge, UK) and acquired using Spike 2.5 (Cambridge Electronic Design) at a 5 KHz sampling rate. A custom made, paired-platinum electrode was placed on right ventricle and used to deliver 2 ms ([…], twice the threshold) stimuli (GRASS S48 stimulator) to pace the heart at different intervals. The standard pacing protocol consisted of 8 Hz stimuli (basic cycle length, BCL 125 ms) and was delivered for 20 min to measure MAPs. This was followed by programmed electrically stimulation (PES) consisting of trains of eight paced stimuli at 125 ms BCL (S1) followed by an extra stimulus (S2). […] PES was repeated three times before and three times after the drug application in each heart. NAD^+ was perfused for 20 min to assess its anti-arrhythmic effect. Selected recordings were imported to Microsoft Excel for further statistical analysis. Average APD90 (action potential duration) was calculated by averaging 240 MAPs recorded at three different locations on each heart (80 MAPs at each location). These studies were approved by the Institutional Review Board.

[3] = 100 μM intracellular (pipette solution), at 10 min
[4] = 300 μM extracellular, overnight incubation

Structure (SMILES): NC(=O)C1=CN([C@@H]2O[C@H](COP(=O)(O)OP(=O)(O)OC[C@H]3O[C@@H](n4cnc5c(N)ncnc54)[C@H](O)[C@@H]3O)[C@@H](O)[C@H]2O)C=CC1 [NADH, nicotinamide adenine dinucleotide]
- decrease in Na+ current (peak current) [1, 3]: 51% and 55.5%
- decrease in whole cell peak conductance ([1]; 300 μM extracellular, overnight): 71.4%
- decrease in peak Na+ current [1, 4]: 65.7±6.6% and 74.9%
- tolerated concentration range (cell viability) (HEK 293 cell (SCN5A)): 150 to 300 µM
- tolerated concentration range (dose-dependent cell viability) (HEK 293 cell (SCN5A)): 150 to 300 µmol/L
- reduction in membrane-associated, GFP-tagged Na+ channels ([2]; overnight incubation with NADH, fluorescent microscopy): 6.1 fold

Structure (SMILES): COc1cc(C(C)=O)ccc1O [apocynin, reference compound]
- effect on the NADH-induced reduction of Na+ current ([1]; apocynin 100 μM added 4-6 h before and during extracellular NADH incubation): abolished the effect of NADH on Na^+ current; also recorded: inhibited the effect of NADH on Na^+ currents

Structure (SMILES): NC(=O)c1ccc[n+]([C@H]2O[C@@H](COP(=O)(O)OP(=O)(O)OC[C@@H]3O[C@H](n4cnc5c(N)ncnc54)[C@H](O)C3O)C(O)[C@H]2O)c1 (stereo partly drawn) [NAD^+, nicotinamide adenine dinucleotide]
- effect on Na+ current density (in words) ([1]; 100 μM in internal (pipette) solution, versus SCN5A): significantly higher
- increase in Na+ current (peak current) [1, 3]: 77% and 66.6%
- effect on peak Na+ current (in words) [1, 4]: increase in peak current; also recorded: increased sodium current
- effect on peak Na+ current (in words) ([1]; 300 μM extracellular, overnight incubation, listed as NAD+): largely restored peak current
- increase in whole cell peak conductance ([1]; 300 μM extracellular, overnight, n=9): 30.3%
- effect on the Na+ current reduction caused by MT GPD1-L (A280V) ([1]; SCN5A cells co-transfected with MT GPD1-L, external NAD+ 300 μM): prevented the loss of peak current; also recorded: increased Na^+ current at all activation potential; also recorded: reverses the decrease in peak current; also recorded: largely prevented; also recorded: prevent the reduction in Na^+ current
- shift of activation curve ([1]; WT SCN5A cells, versus SCN5A cell): shift more positive
- shift of inactivation curve ([1]; versus SCN5A cell): more positive
- tolerated concentration range (cell viability) (HEK 293 cell (SCN5A)): 150 to 300 µM
- hearts in which PES failed to induce VT (SCN5A^+/− mouse heart; SCN5A+/- hearts after 20 min perfusion with 100 μM, VT in 6 out of 6 before): 5 out of 6
- reversibility: hearts with PES-induced VTs after removal (SCN5A^+/− mouse heart; SCN5A+/- hearts, NAD+ removed): 4 out of 6 and reversible
- MAP duration or morphology (SCN5A^+/− mouse heart; perfusion for 20 min with 100 μM): no significant change
- APD90 (SCN5A^+/− mouse heart; six SCN5A+/- hearts, 20 min perfusion with 100 μM, BCL 125 ms): 27.9 ± 1.9 ms
- effect on Na+ channel protein (GFP fluorescence, in words) ([2]; 300 μM overnight, versus control SCN5A-GFP cells): increased GFP fluorescence; also recorded: increases Na^+ channel protein

— US8003324B2, “Modulation of sodium channels by nicotinamide adenine dinucleotide” (U.S. Department of Veterans Affairs, priority 2007, dated 2011)
